Test results reported in patent US20150005347A1, “NITROGEN-CONTAINING HETEROCYCLIC DERIVATIVE HAVING 2-IMINO GROUP AND PEST CONTROL AGENT INCLUDING THE SAME” (MEIJI SEIKA PHARMA CO., LTD., priority 2012, published 2015).

How the values were obtained:
Format in all cases: in vivo
Musca domestica = assay: Pest control test of Musca domestica adults, sucrose pledget; conditions: 50 ppm in 40% sucrose liquid; four days after release
Protocol: Test Example 21 Pest Control Test of Musca domestica
A drug solution of the compound of the present invention, which had been adjusted to be 50 ppm with a 40% sucrose liquid, was adsorbed on a pledget, and the pledget was put into a vial. Two adults reared indoors were released thereto. Thereafter, the adults were left to stand indoors at room temperature of 25° C. […] When two adults were all agonized in death, it was judged to be effective.

[1] = test system: imidacloprid susceptible populations of Nilaparvata lugens; assay: Soil irrigation test, imidacloprid susceptible populations of Nilaparvata lugens
Protocol: A rice seedling in pot culture was subjected to soil irrigation treatment with a drug solution of the compound of the present invention at a predetermined concentration, which had been prepared so as to be a 10% acetone water. […] Thereafter, the larvae were left to stand in a thermostatic chamber (16 hours of light period-8 hours of dark period) at 25° C. […] The test was performed in duplicate.
(§1) Mortality of larvae(%)={number of dead larvae/(number of survived larvae+number of dead larvae)}×100
Further, for comparison, the test against some population of Nilaparvata lugens which is highly susceptible to imidacloprid was performed by the same method as described above, and the results thereof are shown in Table 43.
Further, for the origin of test pests, bugs collected outdoors within the Kumamoto prefecture in 2007 as the drug resistant Nilaparvata lugens, and bugs collected within the Kagoshima prefecture and then successively reared indoors for a long time as the imidacloprid susceptible populations of Nilaparvata lugens were used.

[2] = test system: Trigonotylus caelestialium; assay: Pest control test of Trigonotylus caelestialium, wheat seedling dipping; conditions: Trigonotylus caelestialium, 72 h; dipping treatment of the drug solution at 10 ppm; three days after treatment; read-out: mortality of larvae
Excerpt: Test Example 8 Pest Control Test of Trigonotylus caelestialium
Wheat seedling leaves and stems four days after the dissemination of seedlings were dipped for 30 seconds in a drug solution of the compound of the present invention at a predetermined concentration, which had been prepared so as to be a 50% acetone water (0.05% Tween20 available). After an air drying process, the wheat seedling leaves and stems were placed into a glass tube, and two second instar larvae of Trigonotylus caelestialium were released to the same glass tube. After the larvae were released, the tube was lidded to leave the larvae to stand in a thermostatic chamber at 25° C. In order to supply water to the wheat during the test, water was given to the wheat from the bottom of the glass tube.
as §1

Plutella xylostella = Plutella xylostella control test, cabbage leaf disk foliar spray; conditions: Plutella xylostella, 72 h; foliar treatment at 100 ppm; second instar larvae; three days after release; read-out: mortality of larvae
Protocol: Test Example 1 Plutella xylostella Control Test
A leaf disk having a diameter of 5.0 cm was cut out from a cabbage in pot culture, and a drug solution of the compound of the present invention at a predetermined concentration, which had been prepared so as to be a 50% acetone water (0.05% Tween20 available), was sprayed to the leaf disk. After an air drying process, second instar larvae were released thereto. Thereafter, the larvae were left to stand in a thermostatic chamber (16 hours of light period-8 hours of dark period) at 25° C. […] Test in duplicate.
mortality larvae(%)={number of dead larvae/(number of survived larvae+number of dead larvae)}×100

[3] = test system: Frankliniella occidentalis; assay: Pest control test of Frankliniella occidentalis, kidney bean leaf disk foliar spray; conditions: Frankliniella occidentalis, 72 h; foliar treatment at 100 ppm; first instar larvae; three days after release; read-out: mortality of larvae
Excerpt: Test Example 7 Pest Control Test of Frankliniella occidentalis
A leaf disk having a diameter of 2.8 cm was cut out from a kidney bean in pot culture, and a drug solution of the compound of the present invention at a predetermined concentration, which had been prepared so as to be a 50% acetone water (0.05% Tween20 available), was sprayed to the leaf disk. After an air drying process, first instar larvae were released thereto. Thereafter, the larvae were left to stand in a thermostatic chamber (16 hours of light period-8 hours of dark period) at 25° C. […] Test in duplicate.
as §1

Aphis gossypii = assay: Pest control test of Aphis gossypii, cucumber leaf disk foliar spray; conditions: Aphis gossypii, 72 h, first instar larvae, three days after release; for mortality at 20 ppm: foliar treatment at 20 ppm; for mortality at 20 ppm / mortality at 100 ppm: read-out: mortality of larvae; for mortality at 100 ppm: foliar treatment at 100 ppm
Protocol: Test Example 3 Pest Control Test of Aphis gossypii
A leaf disk having a diameter of 2.0 cm was cut out from a cucumber in pot culture, and a drug solution of the compound of the present invention at a predetermined concentration, which had been prepared so as to be a 50% acetone water (0.05% Tween20 available), was sprayed to the leaf disk. After an air drying process, first instar larvae were released thereto. Thereafter, the larvae were left to stand in a thermostatic chamber (16 hours of light period-8 hours of dark period) at 25° C. […] Test in duplicate.
as §1

SMILES	activity against adults (effective when two adults were all agonized in death) (Musca domestica)	also measured
CCN=C(N=c1ccccn1Cc1ccc(Cl)nc1)C(F)(F)F [Compound 1-43]	all the adults are agonized in death	
O=C(N=c1ccccn1Cc1ccc(F)nc1)C(F)(F)C(F)(F)F [Compound 3-5]	all the adults are agonized in death	
FC(F)(F)C(=NC1CC1)N=c1ccccn1Cc1ccc(Cl)nc1 [Compound 1-50]	all the adults are agonized in death	
O=C(N=c1ccccn1Cc1ccc(Br)nc1)C(F)F [Compound 4-3]	all the adults are agonized in death	
O=C(N=c1ccccn1Cc1cnc(Cl)nc1)C(F)(F)Cl [Compound 6-4]	all the adults are agonized in death	
CCCN=C(N=c1ccccn1Cc1ccc(Cl)nc1)C(F)(F)F [Compound 1-44]	all the adults are agonized in death	
O=C(N=c1ccccn1Cc1cnc(Cl)c(F)c1)C(F)(F)C(F)(F)F [Compound 5-5]	all the adults are agonized in death	
O=[N+]([O-])NC1=NCCN1Cc1ccc(Cl)nc1 [Imidacloprid]		Insecticidal effects against Nilaparvata lugens (mortality of larvae %), Susceptible populations three days after the treatment ([1]; Rate 0.01 mg/pot): 73%; Insecticidal effects against Nilaparvata lugens (mortality of larvae %), Susceptible populations three days after the treatment ([1]; Rate 0.05 mg/pot): 90%
O=C(N=c1ccccn1Cc1ccc(Br)nc1)C(F)(F)Cl [Compound 4-4]	all the adults are agonized in death	
O=C(/N=c1\ccccn1Cc1ccc(F)nc1)C(F)F [Compound 3-3, 2,2-difluoro-N-[1-((6-fluoropyridin-3-yl)methyl)pyridin-2(1H)-ylidene]acetamide]	all the adults are agonized in death	mortality at 10 ppm [2]: ≥ 80%; mortality at 100 ppm (Plutella xylostella): ≥ 80%; mortality at 100 ppm [3]: ≥ 80%; mortality at 20 ppm (Aphis gossypii): ≥ 80%; mortality at 100 ppm (Aphis gossypii): ≥ 80%
O=C(N=c1ccccn1Cc1cnc(Cl)nc1)C(F)(F)C(F)(F)F [Compound 6-5]	all the adults are agonized in death	
O=C(N=c1cccnn1Cc1ccc(Cl)nc1)C(F)(F)F [Compound 223-2]	all the adults are agonized in death	
FC(F)(F)C(=NCc1ccccc1)N=c1ccccn1Cc1ccc(Cl)nc1 [Compound 1-72]	all the adults are agonized in death	
FC(F)(F)C(=NCc1ccccn1)N=c1ccccn1Cc1ccc(Cl)nc1 [Compound 1-118]	all the adults are agonized in death	
CON=C(N=c1ccccn1Cc1ccc(Cl)nc1)C(F)(F)F [Compound 1-500]	all the adults are agonized in death	
O=C(N=c1ccccn1Cc1cnc(Cl)c(F)c1)C(F)(F)Cl [Compound 5-4]	all the adults are agonized in death	
FC(F)(F)C(=NCc1cccnc1)N=c1ccccn1Cc1ccc(Cl)nc1 [Compound 1-119]	all the adults are agonized in death	
O=C(N=c1ccccn1Cc1ccc(Br)nc1)C(F)(F)C(F)(F)F [Compound 4-5]	all the adults are agonized in death	
O=C(/N=c1\ncccn1Cc1ccc(Cl)nc1)C(F)(F)F [Compound 190-2, N-[1-((6-chloropyridin-3-yl)methyl)pyrimidin-2(1H)-ylidene]-2,2,2-trifluoroacetamide]		mortality at 20 ppm (Aphis gossypii): ≥ 80%; mortality at 100 ppm (Aphis gossypii): ≥ 80%
C#CCC(=O)ON=C(N=c1ccccn1Cc1ccc(Cl)nc1)C(F)(F)F [Compound 1-518]	all the adults are agonized in death	
O=C(N=c1ccccn1Cc1ccc(F)nc1)C(F)(F)Cl [Compound 3-4]	all the adults are agonized in death	
FC(F)(F)C(=S)N=c1ccccn1Cc1cnc(Cl)s1 [Compound 2-20]	all the adults are agonized in death	
CSCCN=C(N=c1ccccn1Cc1ccc(Cl)nc1)C(F)(F)F [Compound 1-150]	all the adults are agonized in death	
C#CCN=C(N=c1ccccn1Cc1ccc(Cl)nc1)C(F)(F)F [Compound 1-56]	all the adults are agonized in death	
FC(F)(F)C(=NCCOc1ccccc1)N=c1ccccn1Cc1ccc(Cl)nc1 [Compound 1-114]	all the adults are agonized in death	
CCCNC(=O)O/N=C(/N=c1\ccccn1Cc1ccc(Cl)nc1)C(F)(F)F [Compound 1-534, N-[1-((6-chloropyridin-3-yl)methyl)pyridin-2(1H)-ylidene]-2,2,2-trifluoro-N′-((propylcarbamoyl)oxy)acetimidamide]		mortality at 100 ppm (Plutella xylostella): ≥ 80%
O=C(N=c1ccccn1Cc1cnc(Cl)nc1)C(F)F [Compound 6-3]	all the adults are agonized in death	
C=CCON=C(/N=c1\ccccn1Cc1ccc(Cl)nc1)C(F)(F)F [Compound 1-507, N′-(aryloxy)-N-[1-((6-chloropyridin-3-yl)methyl)pyridin-2(1H)-ylidene]-2,2,2-trifluoroacetimidamide]		mortality at 100 ppm (Plutella xylostella): ≥ 80%; mortality at 20 ppm (Aphis gossypii): ≥ 80%; mortality at 100 ppm (Aphis gossypii): ≥ 80%
O=C(/N=c1\ccccn1Cc1ccc(Cl)nc1)OCC(F)(F)F [Compound 1-17, 2,2,2-trifluoroethyl-[1-((6-chloropyridin-3-yl)methyl)pyridin-(2H)-ylidene]carbamate]		mortality at 100 ppm (Aphis gossypii): ≥ 80%; mortality at 500 ppm (Aphis gossypii; foliar treatment at 500 ppm): ≥ 80%
Cc1ccc(S(=O)(=O)ON=C(N=c2ccccn2Cc2ccc(Cl)nc2)C(F)(F)F)cc1 [Compound 1-531]	all the adults are agonized in death	
